Measured values published in ChEMBL document CHEMBL3124811, “Potent and selective double-headed thiophene-2-carboximidamide inhibitors of neuronal nitric oxide synthase for the treatment of melanoma” (J Med Chem, 2014).
pKi: −log10 of the molar value.

Tests used:
[1] = Selectivity ratio of Ki(app) for recombinant bovine eNOS to Ki(app) for recombinant rat nNOS
[2] = Selectivity ratio of Ki(app) for recombinant mouse iNOS to Ki(app) for recombinant rat nNOS
Nitric oxide synthase 3 = target: T1, Nitric oxide synthase 3 (Bos taurus, UniProt P29473)
T1 sequence (P29473 whole entry): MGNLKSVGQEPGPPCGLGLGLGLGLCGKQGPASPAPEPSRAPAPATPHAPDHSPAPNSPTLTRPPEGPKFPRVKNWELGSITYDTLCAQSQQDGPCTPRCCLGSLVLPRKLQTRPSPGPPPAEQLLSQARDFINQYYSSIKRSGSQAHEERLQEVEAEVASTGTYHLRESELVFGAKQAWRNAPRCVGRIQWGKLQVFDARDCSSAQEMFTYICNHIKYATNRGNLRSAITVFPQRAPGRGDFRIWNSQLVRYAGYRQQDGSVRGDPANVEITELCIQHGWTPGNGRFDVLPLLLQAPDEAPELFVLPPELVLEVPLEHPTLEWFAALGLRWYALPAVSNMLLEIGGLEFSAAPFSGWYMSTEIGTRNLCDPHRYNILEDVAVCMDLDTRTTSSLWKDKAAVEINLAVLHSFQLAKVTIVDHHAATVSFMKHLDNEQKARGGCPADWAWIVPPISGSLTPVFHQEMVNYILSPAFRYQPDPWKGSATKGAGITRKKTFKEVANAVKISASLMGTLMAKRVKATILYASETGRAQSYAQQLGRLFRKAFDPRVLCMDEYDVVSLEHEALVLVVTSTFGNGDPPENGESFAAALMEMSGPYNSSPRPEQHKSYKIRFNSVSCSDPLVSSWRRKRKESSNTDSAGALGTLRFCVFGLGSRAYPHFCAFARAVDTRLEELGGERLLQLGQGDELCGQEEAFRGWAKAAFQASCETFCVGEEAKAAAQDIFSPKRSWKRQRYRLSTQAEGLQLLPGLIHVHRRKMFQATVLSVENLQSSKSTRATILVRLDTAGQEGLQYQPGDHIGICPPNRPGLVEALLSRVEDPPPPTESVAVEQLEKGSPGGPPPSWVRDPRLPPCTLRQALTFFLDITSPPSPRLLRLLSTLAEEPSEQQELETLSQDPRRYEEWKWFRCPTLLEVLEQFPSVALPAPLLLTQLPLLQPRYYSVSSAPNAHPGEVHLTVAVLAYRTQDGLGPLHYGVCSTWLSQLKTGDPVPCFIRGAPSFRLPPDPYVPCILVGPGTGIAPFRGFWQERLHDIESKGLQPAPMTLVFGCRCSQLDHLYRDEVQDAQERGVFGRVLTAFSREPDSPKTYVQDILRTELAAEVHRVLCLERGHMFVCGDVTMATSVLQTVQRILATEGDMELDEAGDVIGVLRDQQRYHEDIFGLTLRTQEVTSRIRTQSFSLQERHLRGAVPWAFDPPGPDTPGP

[3] = target: T2, Nitric oxide synthase, inducible (Mus musculus, UniProt P29477)
T2 sequence (P29477 whole entry): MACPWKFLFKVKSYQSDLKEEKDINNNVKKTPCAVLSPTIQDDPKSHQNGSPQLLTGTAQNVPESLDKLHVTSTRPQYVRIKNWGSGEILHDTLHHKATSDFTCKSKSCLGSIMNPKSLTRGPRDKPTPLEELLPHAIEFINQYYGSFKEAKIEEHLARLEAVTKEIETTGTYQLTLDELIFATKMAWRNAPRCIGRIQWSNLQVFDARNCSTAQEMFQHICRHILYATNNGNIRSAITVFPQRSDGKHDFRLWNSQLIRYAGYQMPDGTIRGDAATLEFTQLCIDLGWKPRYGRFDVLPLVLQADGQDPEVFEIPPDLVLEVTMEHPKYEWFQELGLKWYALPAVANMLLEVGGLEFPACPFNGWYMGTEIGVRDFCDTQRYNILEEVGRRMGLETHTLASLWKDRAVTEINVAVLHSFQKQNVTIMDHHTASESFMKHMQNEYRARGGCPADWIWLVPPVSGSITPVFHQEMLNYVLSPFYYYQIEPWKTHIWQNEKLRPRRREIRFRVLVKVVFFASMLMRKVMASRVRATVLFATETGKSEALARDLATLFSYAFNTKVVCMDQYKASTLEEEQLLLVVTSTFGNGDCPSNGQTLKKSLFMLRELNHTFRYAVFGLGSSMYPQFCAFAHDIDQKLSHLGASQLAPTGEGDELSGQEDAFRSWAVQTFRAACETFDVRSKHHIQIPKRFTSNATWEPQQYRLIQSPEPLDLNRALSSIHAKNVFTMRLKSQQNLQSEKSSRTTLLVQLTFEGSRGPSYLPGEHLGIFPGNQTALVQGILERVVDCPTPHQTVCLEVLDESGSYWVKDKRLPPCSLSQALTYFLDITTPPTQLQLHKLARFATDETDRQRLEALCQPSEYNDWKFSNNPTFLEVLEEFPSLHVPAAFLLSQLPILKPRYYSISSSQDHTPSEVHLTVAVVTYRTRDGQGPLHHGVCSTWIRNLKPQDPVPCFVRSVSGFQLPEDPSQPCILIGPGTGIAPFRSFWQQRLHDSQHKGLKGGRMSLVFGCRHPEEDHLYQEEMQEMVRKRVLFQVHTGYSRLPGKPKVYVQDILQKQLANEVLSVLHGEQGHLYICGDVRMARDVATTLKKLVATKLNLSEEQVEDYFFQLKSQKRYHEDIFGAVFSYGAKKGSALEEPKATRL

Nitric oxide synthase 1 = Nitric oxide synthase 1 (Rattus norvegicus, UniProt P29476)
Nitric oxide synthase 1, sequence (P29476 whole entry): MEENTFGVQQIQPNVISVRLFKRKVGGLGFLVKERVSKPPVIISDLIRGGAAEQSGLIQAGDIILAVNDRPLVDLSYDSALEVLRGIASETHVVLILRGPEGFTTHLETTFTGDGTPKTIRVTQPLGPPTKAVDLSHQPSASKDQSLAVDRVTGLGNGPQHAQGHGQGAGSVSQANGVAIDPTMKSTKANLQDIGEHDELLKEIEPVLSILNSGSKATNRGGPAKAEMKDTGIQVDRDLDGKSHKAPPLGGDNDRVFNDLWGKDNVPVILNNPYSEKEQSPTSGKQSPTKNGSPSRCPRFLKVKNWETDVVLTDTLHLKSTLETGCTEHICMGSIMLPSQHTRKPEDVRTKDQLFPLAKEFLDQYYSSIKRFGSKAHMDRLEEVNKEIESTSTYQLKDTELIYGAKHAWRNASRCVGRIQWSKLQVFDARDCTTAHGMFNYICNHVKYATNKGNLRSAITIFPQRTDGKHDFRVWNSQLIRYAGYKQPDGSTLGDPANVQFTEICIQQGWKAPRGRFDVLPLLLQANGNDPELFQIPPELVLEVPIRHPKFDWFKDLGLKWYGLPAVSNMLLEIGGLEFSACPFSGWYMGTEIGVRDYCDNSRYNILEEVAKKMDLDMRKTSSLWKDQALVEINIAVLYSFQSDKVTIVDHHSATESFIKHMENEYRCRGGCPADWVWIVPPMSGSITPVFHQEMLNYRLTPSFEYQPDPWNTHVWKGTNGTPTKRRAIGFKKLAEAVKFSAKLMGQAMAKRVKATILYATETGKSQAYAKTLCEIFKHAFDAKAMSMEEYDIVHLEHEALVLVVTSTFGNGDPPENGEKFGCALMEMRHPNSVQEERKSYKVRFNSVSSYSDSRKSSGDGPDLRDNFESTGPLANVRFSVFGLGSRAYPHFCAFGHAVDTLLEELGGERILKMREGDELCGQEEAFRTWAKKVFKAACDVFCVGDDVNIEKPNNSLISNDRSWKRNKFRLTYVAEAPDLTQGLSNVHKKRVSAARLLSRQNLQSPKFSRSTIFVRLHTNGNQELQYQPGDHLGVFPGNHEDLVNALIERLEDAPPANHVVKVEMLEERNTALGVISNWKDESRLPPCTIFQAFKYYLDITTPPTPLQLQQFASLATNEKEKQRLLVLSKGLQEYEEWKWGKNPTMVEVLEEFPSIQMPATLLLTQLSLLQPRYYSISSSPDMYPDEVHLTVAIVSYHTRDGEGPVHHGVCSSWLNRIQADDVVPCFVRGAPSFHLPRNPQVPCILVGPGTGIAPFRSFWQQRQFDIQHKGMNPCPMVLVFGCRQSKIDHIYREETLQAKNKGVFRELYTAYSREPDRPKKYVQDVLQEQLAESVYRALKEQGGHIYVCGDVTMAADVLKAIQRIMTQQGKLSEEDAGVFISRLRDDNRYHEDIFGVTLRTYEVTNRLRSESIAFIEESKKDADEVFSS

Structure (SMILES)	Ratio Ki(app) [1]	Ratio Ki(app) [2]	pKi (Nitric oxide synthase 3)	pKi [3]	pKi (Nitric oxide synthase 1)
N=C(Nc1cccc(-c2cccc(NC(=N)c3cccs3)c2)c1)c1cccs1	225	84	3.75	4.18	6.10
NC(=Nc1cccc(OCCOc2cccc(N=C(N)c3cccs3)c2)c1)c1cccs1			4.86	4.18	6.89
N=C(Nc1cccc(CCc2cccc(NC(=N)c3cccs3)c2)c1)c1cccs1	89	141	4.18	3.98	6.13
N=C(Nc1cccc(OCCOc2cccc(NC(=N)c3cccs3)c2)c1)c1cccs1	105	513			
N=C(Nc1cccc(OCCCOc2cccc(NC(=N)c3cccs3)c2)c1)c1cccs1	17	53	5.40	4.90	6.63
NC(=Nc1cccc(Cc2cccc(N=C(N)c3cccs3)c2)c1)c1cccs1			3.88	4.10	
